Consider 27 molecules from patent US20230295152A1 (SENDA BIOSCIENCES, INC., priority 2019, published 2023).

A value given as a limit tells only on which side of the number the result lay.

The target of this assay is T1, AHR (Homo sapiens, UniProt P35869).
T1 construct: other cell line with a DRE-luciferase reporter stably transfected; endogenous in cells; host or cells: HepG2 AhR-Lucia reporter cells
T1 sequence (P35869 11-848): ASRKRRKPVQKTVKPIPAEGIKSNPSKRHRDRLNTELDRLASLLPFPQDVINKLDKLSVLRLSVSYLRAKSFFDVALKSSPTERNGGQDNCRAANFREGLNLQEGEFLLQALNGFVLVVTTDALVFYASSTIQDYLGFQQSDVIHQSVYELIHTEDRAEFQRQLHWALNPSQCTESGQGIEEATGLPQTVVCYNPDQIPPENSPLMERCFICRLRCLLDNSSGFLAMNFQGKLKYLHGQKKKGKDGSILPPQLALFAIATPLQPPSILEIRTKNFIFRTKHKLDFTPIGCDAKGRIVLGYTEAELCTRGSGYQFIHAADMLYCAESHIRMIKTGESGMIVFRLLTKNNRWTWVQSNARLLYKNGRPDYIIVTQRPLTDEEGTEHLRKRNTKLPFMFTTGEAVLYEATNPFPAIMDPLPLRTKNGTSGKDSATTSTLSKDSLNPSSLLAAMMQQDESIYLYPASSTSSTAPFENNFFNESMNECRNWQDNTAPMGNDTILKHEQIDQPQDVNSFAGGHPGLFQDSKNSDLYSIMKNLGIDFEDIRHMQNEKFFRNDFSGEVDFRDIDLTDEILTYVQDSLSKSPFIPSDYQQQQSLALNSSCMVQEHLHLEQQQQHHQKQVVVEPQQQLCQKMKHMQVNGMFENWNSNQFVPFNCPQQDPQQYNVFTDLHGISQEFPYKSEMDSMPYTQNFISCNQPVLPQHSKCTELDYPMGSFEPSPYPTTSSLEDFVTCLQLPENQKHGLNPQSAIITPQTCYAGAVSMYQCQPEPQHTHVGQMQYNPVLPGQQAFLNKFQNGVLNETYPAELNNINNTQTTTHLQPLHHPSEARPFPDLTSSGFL
Description: DRE-Luciferase Reporter Assay, HepG2 AhR-Lucia reporter cells. Type of assay: cell-based. The settings on record: with AHR activating ligand at EC50, read-out: HepG2-Luc IC50. From the text:
AHR binds to Dioxin Responsive Elements (DRE) upstream of genes that it activates. One measure of AHR activity is activation of a reporter gene, such as luciferase, downstream of one or multiple DRE elements. Luciferase activity will reflect activation and inhibition of AHR in the cells expressing his reporter. 20000 Human HepG2 liver carcinoma—AhR-Lucia reporter cells or Human HT29 colon adenocarcinoma—AhR reporter cells or other cell line with a DRE-luciferase reporter stably transfected were plated in Eagle's Minimal Essential Medium, 10% heat-inactivated FBS, 1× non-essential amino acids Pen-Strep (10,000 U/mL) and Normocin (100 ug/mL) in plates (96-well, 384-well or other plates) and incubated overnight at 37° C. in a CO2 incubator and treated with and without AhR antagonists at a log dilution starting at 100 uM.
After 1 hr that cells were plated an AHR activating ligand, such as TCDD, kynurenine, ITE (2-(1H-indole-3-ylcarbonyl)-4-thiazolecarboxylic methyl ester), VAF347, BNF (beta-naphthoflavone), FICZ (6-formylindolo(3,2-b) carbazole) or other AHR ligands at their specific EC50 concentration, were added to the cells with or without AHR antagonist.
Cells were incubated for 24 or 48 hours or another time point and then, supernatant was analyzed for determination of luciferase activity as a read-out of the AHR activation or inhibition. Luciferase was measured with the commercial kit QUANTI-Luc™ assay solution kit from Invivogen following the manufacturer's instructions.
The level of luciferase with only agonist ligand added was the maximum signal while the luciferase with […] was the minimum signal. IC50 values were determined as the concentration which inhibits half of the luciferase activity.
Background: In a reporter assay the amount or activity of a reporter protein is the signal.
As a reminder, the IC50 is the midpoint of a concentration-inhibition curve. For the molecule `O=c1c2cc(-c3ccc(OC(F)(F)F)cc3)nc(-c3cccnc3)c2ncn1CCO` [Compound 72], the concentration for half-maximal inhibition (IC50) is less than 100 nM.
The result for `Cn1cc(-c2nc(-c3ccc(C(F)(F)F)cn3)cc3c(=O)n([C@H]4COC[C@@H]4O)cnc23)cn1` [Compound 137, 3-((3S,4R)-4-hydroxytetrahydrofuran-3-yl)-8-(1-methyl-1H-pyrazol-4-yl)-6-(5-(trifluoromethyl)pyridin-2-yl)pyrido[3,4-d]pyrimidin-4(3H)-one] reads less than 100 nM.
Regarding `C[C@@H](CO)n1cnc2c(-n3cccn3)nc(-c3ccc(C(F)(F)F)nc3)cc2c1=O` [Compound 165, (S)-3-(1-hydroxypropan-2-yl)-8-(1H-pyrazol-1-yl)-6-(6-(trifluoromethyl)pyridin-3-yl)pyrido[3,4-d]pyrimidin-4(3H)-one], the IC50 was less than 100 nM.
On to `Cn1cc(-c2nc(-c3ccc(C(F)(F)F)cn3)cc3c(=O)n([C@@H]4COC[C@H]4O)cnc23)cn1` [Compound 138, 3-((3R,4S)-4-hydroxytetrahydrofuran-3-yl)-8-(1-methyl-1H-pyrazol-4-yl)-6-(5-(trifluoromethyl)pyridin-2-yl)pyrido[3,4-d]pyrimidin-4(3H)-one], for which the IC50 is less than 100 nM.
As to `Cn1cc(-c2nc(-c3ccc(C4CC4)nc3)cc3c(=O)n(C[C@@H](O)C(F)(F)F)cnc23)cn1` [Compound 135, (R)-6-(6-cyclopropylpyridin-3-yl)-8-(1-methyl-1H-pyrazol-4-yl)-3-(3,3,3-trifluoro-2-hydroxypropyl)pyrido[3,4-d]pyrimidin-4(3H)-one], the IC50 is less than 100 nM.
The result for `Cc1ccc(-c2cc3c(=O)n([C@@H](C)CO)cnc3c(-c3cccnc3)n2)cn1` [Compound 98] reads less than 100 nM; that for `COC[C@H](C)n1cnc2c(-c3cccnc3)nc(-c3ccc(C)cc3)cc2c1=O` [Compound 45, (S)-3-(1-methoxypropan-2-yl)-8-(pyridin-3-yl)-6-(p-tolyl)pyrido[3,4-d]pyrimidin-4(3H)-one], less than 100 nM.
With `C[C@@H](CO)n1cnc2c(-c3cccc4c3OCO4)nc(-c3ccc(Cl)cc3)cc2c1=O` [Compound 3], the IC50 was 100 to 500 nM.
Turning to `Cn1cc(-c2nc(-c3cnc(C(F)(F)F)s3)cc3c(=O)n(CC(C)(C)O)cnc23)cn1` [Compound 170, 3-(2-hydroxy-2-methylpropyl)-8-(1-methyl-1H-pyrazol-4-yl)-6-(2-(trifluoromethyl)thiazol-5-yl)pyrido[3,4-d]pyrimidin-4(3H)-one], the IC50 was less than 100 nM.
Under `Cn1cc(-c2nc(-c3ccc(Cl)cc3)cc3c(=O)n([C@@H]4COC[C@@H]4O)cnc23)cn1` [Compound 131, 6-(4-chlorophenyl)-3-((3R,4R)-4-hydroxytetrahydrofuran-3-yl)-8-(1-methyl-1H-pyrazol-4-yl)pyrido[3,4-d]pyrimidin-4(3H)-one] stands less than 100 nM; under `C[C@@H](CO)n1cnc2c(-c3cccnc3)nc(-c3cnnn3C)cc2c1=O` [Compound 184, (S)-3-(1-hydroxypropan-2-yl)-6-(1-methyl-1H-1,2,3-triazol-5-yl)-8-(pyridin-3-yl)pyrido[3,4-d]pyrimidin-4(3H)-one], greater than 500 nM.
The result for `C[C@@H](CO)n1cnc2c(-c3cccnc3)nc(C3=CCCCC3)cc2c1=O` [Compound 77, (S)-6-(Cyclohex-1-en-1-yl)-3-(1-hydroxypropan-2-yl)-8-(pyridin-3-yl)pyrido[3,4-d]pyrimidin-4(3H)-one] reads greater than 500 nM; that for `C[C@@H](C(=O)N[C@@H]1COC[C@H]1O)n1cnc2c(-c3cccnc3)nc(-c3ccc(C(F)(F)F)nc3)cc2c1=O` [Compound 158, (S)—N-((3R,4S)-4-hydroxytetrahydrofuran-3-yl)-2-(4-oxo-8-(pyridin-3-yl)-6-(6-(trifluoromethyl)pyridin-3-yl)pyrido[3,4-d]pyrimidin-3(4H)-yl)propenamide], 100 to 500 nM; that for `C[C@@H](O)Cn1cnc2c(-c3cnn(C)c3)nc(-c3ccc(C(F)(F)F)nc3)cc2c1=O` [Compound 108, (R)-3-(2-hydroxypropyl)-8-(1-methyl-1H-pyrazol-4-yl)-6-(6-(trifluoromethyl)pyridin-3-yl)pyrido[3,4-d]pyrimidin-4(3H)-one], less than 100 nM.
Take `O=c1c2cc(-c3ccc(C(F)(F)F)nc3)nc(-c3cccnc3)c2ncn1[C@@H]1CCS(=O)(=O)C1` [Compound 107, (R)-3-(1,1-dioxidotetrahydrothiophen-3-yl)-8-(pyridin-3-yl)-6-(6-(trifluoromethyl)pyridin-3-yl)pyrido[3,4-d]pyrimidin-4(3H)-one]: the IC50 is less than 100 nM.
The result for `Cn1cc(-c2nc(-c3ccc(C(F)(F)F)cn3)cc3c(=O)n(C[C@H](O)C(F)(F)F)cnc23)cn1` [Compound 147] reads less than 100 nM.
With `C[C@@H](CO)n1cnc2c(-n3cccn3)nc(-c3ccc(C(F)(F)F)cn3)cc2c1=O` [Compound 167, (S)-3-(1-hydroxypropan-2-yl)-8-(1H-pyrazol-1-yl)-6-(5-(trifluoromethyl)pyridin-2-yl)pyrido[3,4-d]pyrimidin-4(3H)-one], the IC50 was 100 to 500 nM.
`C[C@@H](O)Cn1cnc2c(-c3cnn(C)c3)nc(-c3ccc(C(F)(F)F)cn3)cc2c1=O` [Compound 141, (R)-3-(2-hydroxypropyl)-8-(1-methyl-1H-pyrazol-4-yl)-6-(5-(trifluoromethyl)pyridin-2-yl)pyrido[3,4-d]pyrimidin-4(3H)-one]: the half-inhibitory concentration (IC50) is less than 100 nM.
Under `CC(C)c1ncc(-c2cc3c(=O)n([C@@H](C)CO)cnc3c(-c3cccnc3)n2)s1` [Compound 67] stands less than 100 nM; under `Cc1ccncc1-c1nc(-c2ccc(C(F)(F)F)nc2)cc2c(=O)n([C@@H](C)CO)cnc12` [Compound 64], greater than 500 nM; under `C[C@@H](CO)n1cnc2c(-n3cncn3)nc(-c3ccc(C(F)(F)F)nc3)cc2c1=O` [Compound 164, (S)-3-(1-hydroxypropan-2-yl)-8-(1H-1,2,4-triazol-1-yl)-6-(6-(trifluoromethyl)pyridin-3-yl)pyrido[3,4-d]pyrimidin-4(3H)-one], 100 to 500 nM.
Take `Cn1cc(-c2nc(-c3cnc(C(F)(F)F)s3)cc3c(=O)n([C@H]4COC[C@@H]4O)cnc23)cn1` [Compound 171, 3-((3S,4R)-4-hydroxytetrahydrofuran-3-yl)-8-(1-methyl-1H-pyrazol-4-yl)-6-(2-(trifluoromethyl)thiazol-5-yl)pyrido[3,4-d]pyrimidin-4(3H)-one]: the IC50 is less than 100 nM.
Consider `C[C@@H](CO)n1cnc2c(-c3cccnc3)nc(-c3ccccn3)cc2c1=O` [Compound 182, (S)-3-(1-hydroxypropan-2-yl)-6-(pyridin-2-yl)-8-(pyridin-3-yl)pyrido[3,4-d]pyrimidin-4(3H)-one], for which the IC50 lay in the range of 100 to 500 nM.
The result for `C[C@@H](C(=O)O)n1cnc2c(-c3cccnc3)nc(-c3ccc(C(F)(F)F)nc3)cc2c1=O` [Compound 155, (S)-2-(4-oxo-8-(pyridin-3-yl)-6-(6-(trifluoromethyl)pyridin-3-yl)pyrido[3,4-d]pyrimidin-3(4H)-yl)propanoic acid] reads greater than 500 nM; that for `C[C@@H](CO)n1cnc2c(-c3cnsc3)nc(-c3cnsc3)cc2c1=O` [Compound 56], 100 to 500 nM; that for `C[C@@H](CO)n1cnc2c(-c3cccnc3)nc(C(=O)N(C)C)cc2c1=O` [Compound 190, (S)-3-(1-hydroxypropan-2-yl)-N,N-dimethyl-4-oxo-8-(pyridin-3-yl)-3,4-dihydropyrido[3,4-d]pyrimidine-6-carboxamide], greater than 500 nM.
Turning to `C[C@@H](CO)n1cnc2c(-c3cccnc3)nc(-c3cncs3)cc2c1=O` [Compound 84], the IC50 was greater than 500 nM.
